This is an account of results in patent US20250332081A1, “A Composition Against Osmotic Stress” (ELC Management LLC, priority 2022, published 2025).

The experiment relates to Normal Human Epidermal Keratinocytes (NHEK). Briefly: Hyper-osmotic stress model in NHEKs: cell protection (alamarBlue viability) and combination index. Conditions: 48 hrs, hyper-osmotic stress 450 mOsm. Type of experiment: cell-based. How it is done:
1.2 g betaine (RDS 51-6709) was dissolved in 100 ml water with magnetic stirring for complete dissolution (Stock concentration 1.2%). 0.5 g Roselle extract (Hibiscus Sabdariffa Extract, Lucas Meyer Cosmetics Company) was dissolved in 10 mL water to achieve 5% stock solution. Then the solutions were filtrated with 0.22 um filter to keep sterile.
Normal Human Epidermal Keratinocytes (NHEK, FC-0007) purchased from Lifeline Cell Technology were incubated at 37° C., 95% humidity and 5% CO2 in keratinocyte cell culture medium (DermaLife K Keratinocyte Medium Complete Kit, LL-0007, Lifeline cell technology) supplemented with growth factors and 1% Penicillin/Streptomycin (Thermo Fischer, Waltham, MA, USA). Cells were passaged upon reaching 80% confluency.
NHEKs were plated in 96-well plates at 4,000/well density. After 24 h of incubation, the cells would have reached ˜80% confluency. 4.38 mg/mL NaCL was added in the culture media to achieve 450 osmolarity, on top of a baseline ˜300 mOsm.
On day 1, NHEKs were seeded with culture medium (DermaLife K Keratinocyte Medium Complete Kit) in a 96-well plate at 3,000 cells/well. After 24 h adherence, a 2-active combination experiment was carried out in vitro. 21 data points were used for dose and effect, including 4 concentrations for betaine, 7 concentrations for roselle extract and their combination as below (Table 1). Cells were treated with the combination of these actives for 48 hrs (Separately diluted with cell culture medium, followed by mixing together to treat cells). Then cells were washed with Dulbecco's phosphate buffered saline (DPBS) twice, and then incubated in medium with 10% alamarBlue™ Cell Viability Reagent (Thermo Fisher, Waltham, MA, USA) for 120 minutes. The incubated plates were measured for fluorescence using a Perkin Elmer plate reader (VICTOR Nivo), at Ex 530 nm/Em 615 nm. The value are recorded as RFU value.
The protective effect can be determined by Cell viability ratio (%) and Cell protection rate (%) as follows.
According to the theory proposed by Chou and Talalay (TING-CHAO CHOU. Theoretical Basis, Experimental Design, and Computerized Simulation of Synergism and Antagonism in Drug Combination Studies. Pharmacol Rev 58:621-681, 2006), the level of synergism can be typically measured and quantified by the drug combination index (CI, a quantitative measure of drug combination effects) from experimental dose-response data. The concentration of each compound, the protection ratio of each compound or the combo of these two compounds data were input into computer for automated analysis using CalcuSyn software. […]
Experiments were conducted at four levels of betaine and seven levels of roselle extract. […] Synergy value is classified based on the calculated combination index.

Consider `C[N+](C)(C)CC(=O)[O-]` [Betaine, trimethylglycine], for which the “Protective Ratio (%)” value by setting is: (betaine 0.03% alone) 8.924%; (betaine 0.06% alone) 19.658%; (betaine 0.09% alone) 15.259%; (betaine 0.1% alone) 17.451%.
